Results as given in ChEMBL document CHEMBL1201862, “PubChem BioAssay data set” (2004).
The source made the active and inactive calls.

Assays:
[1] = HEp-2 cell cytotoxicity, dose response, cytotoxicity control for RSV inhibitor project, HTS (AID 2410); assay type: functional; conditions: human respiratory syncytial virus
[2] = A Cell Based Secondary Assay To Explore Cytotoxicity of Compounds that Sensitize Mycobacterium Tuberculosis to Beta-Lactam Antibiotics.; assay type: functional
Estrogen receptor = target: T1, Estrogen receptor (Homo sapiens, UniProt P03372);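 also: potency for inhibiting coactivator peptide recruitment to the receptor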
T1 sequence (P03372 whole entry): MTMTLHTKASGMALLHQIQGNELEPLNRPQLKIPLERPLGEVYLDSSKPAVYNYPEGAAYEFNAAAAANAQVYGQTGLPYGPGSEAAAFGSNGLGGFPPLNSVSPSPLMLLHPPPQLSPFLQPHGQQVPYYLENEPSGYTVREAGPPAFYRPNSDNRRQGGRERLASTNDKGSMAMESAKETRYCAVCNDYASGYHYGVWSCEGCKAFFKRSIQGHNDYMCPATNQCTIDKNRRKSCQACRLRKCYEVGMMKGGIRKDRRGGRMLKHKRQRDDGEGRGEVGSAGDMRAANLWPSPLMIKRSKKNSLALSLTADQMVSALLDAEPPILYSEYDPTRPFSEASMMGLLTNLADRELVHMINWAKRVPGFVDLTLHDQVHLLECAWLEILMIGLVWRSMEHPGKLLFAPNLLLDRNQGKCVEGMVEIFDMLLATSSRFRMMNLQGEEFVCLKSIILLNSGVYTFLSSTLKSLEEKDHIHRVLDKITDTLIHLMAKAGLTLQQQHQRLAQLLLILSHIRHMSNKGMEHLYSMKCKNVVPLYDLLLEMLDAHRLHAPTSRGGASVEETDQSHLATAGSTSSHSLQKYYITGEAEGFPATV

[3] = target: T2, Sentrin-specific protease 8 (Homo sapiens, UniProt Q96LD8); assay type: functional;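 also: luminescence read-out of SENP8 inhibition, dose-response confirmation following an ultra-high-throughput screen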
T2 sequence (Q96LD8 whole entry): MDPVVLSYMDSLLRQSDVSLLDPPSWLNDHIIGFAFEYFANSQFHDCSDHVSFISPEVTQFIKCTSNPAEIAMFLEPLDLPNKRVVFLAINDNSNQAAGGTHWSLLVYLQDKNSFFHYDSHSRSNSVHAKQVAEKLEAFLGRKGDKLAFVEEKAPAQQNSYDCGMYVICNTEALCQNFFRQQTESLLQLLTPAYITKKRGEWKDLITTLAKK

Estrogen receptor beta = Estrogen receptor beta (Homo sapiens, UniProt Q92731);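 also: recombinant ER-beta bound to coactivator SRC1 peptide in presence of estradiol agonist; inhibitors block coactivator peptide binding and lower the FRET signal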
[4] = Luminescence Cell-Based Dose Confirmation HTS to Identify Activators of 5'UTR Stem-Loop Driven Alpha-Synuclein mRNA Translation in H4 Neuroglioblastoma Cells. [Related pubchem assays: 1829 (Project Summary), 1814 (Primary HTS)]; assay type: functional
[5] = target: T3, Sentrin-specific protease 6 (Homo sapiens, UniProt Q9GZR1); assay type: functional;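 also: Luminescence-based dose-response confirmatory assay of SENP6 inhibition, following up an ultra-high-throughput screen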
T3 sequence (Q9GZR1 whole entry): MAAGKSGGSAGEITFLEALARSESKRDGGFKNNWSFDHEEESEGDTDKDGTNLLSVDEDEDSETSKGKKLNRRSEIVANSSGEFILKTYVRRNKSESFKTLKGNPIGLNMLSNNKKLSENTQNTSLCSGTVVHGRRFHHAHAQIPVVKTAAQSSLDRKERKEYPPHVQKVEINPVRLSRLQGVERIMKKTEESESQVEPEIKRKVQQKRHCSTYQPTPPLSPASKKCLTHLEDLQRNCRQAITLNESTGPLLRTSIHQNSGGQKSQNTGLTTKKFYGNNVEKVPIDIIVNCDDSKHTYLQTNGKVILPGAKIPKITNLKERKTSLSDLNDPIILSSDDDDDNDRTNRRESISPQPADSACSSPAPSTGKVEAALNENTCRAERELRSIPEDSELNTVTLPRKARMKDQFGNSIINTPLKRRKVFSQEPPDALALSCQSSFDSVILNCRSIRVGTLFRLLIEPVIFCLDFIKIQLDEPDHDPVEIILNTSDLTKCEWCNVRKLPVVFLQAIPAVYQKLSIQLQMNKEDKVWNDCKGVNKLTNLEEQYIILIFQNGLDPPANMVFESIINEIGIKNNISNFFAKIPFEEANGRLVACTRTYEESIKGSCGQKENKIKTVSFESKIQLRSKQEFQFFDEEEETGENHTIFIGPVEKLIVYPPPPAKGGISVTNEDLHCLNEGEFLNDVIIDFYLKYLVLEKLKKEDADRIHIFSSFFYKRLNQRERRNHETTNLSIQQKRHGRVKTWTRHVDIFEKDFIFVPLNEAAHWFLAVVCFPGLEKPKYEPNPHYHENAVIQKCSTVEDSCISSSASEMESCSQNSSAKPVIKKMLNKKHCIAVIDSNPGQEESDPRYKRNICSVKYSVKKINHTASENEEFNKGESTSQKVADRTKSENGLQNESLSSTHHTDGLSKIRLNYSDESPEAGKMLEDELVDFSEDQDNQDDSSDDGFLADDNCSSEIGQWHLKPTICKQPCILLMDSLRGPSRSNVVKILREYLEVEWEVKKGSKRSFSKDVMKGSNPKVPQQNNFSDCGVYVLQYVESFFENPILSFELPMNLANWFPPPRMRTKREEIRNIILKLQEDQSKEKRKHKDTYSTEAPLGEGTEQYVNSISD

[6] = Luminescence Cell-Based Dose Response HTS to Identify Activators of Luciferase Translation or Activity in H4 […] Cells. [Related pubchem assays: 1829 (Project Summary), 1814 (Primary HTS)]; assay type: functional
H4 = assay: Luminescence Cell-Based Dose Response HTS to Identify Activators of 5'UTR Stem-Loop Driven Prion Protein mRNA Translation in H4 Neuroglioblastoma Cells. [Related pubchem assays: 1829 (Project Summary), 1814 (Primary HTS)]; assay type: functional; conditions: Homo sapiens
Caspase-3 = target: T4, Caspase-3 (Homo sapiens, UniProt P42574); assay type: functional;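 also: Dose-response selectivity test against caspase-3 for candidate inhibitors of sentrin-specific proteases (SENPs)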
T4 sequence (P42574 whole entry): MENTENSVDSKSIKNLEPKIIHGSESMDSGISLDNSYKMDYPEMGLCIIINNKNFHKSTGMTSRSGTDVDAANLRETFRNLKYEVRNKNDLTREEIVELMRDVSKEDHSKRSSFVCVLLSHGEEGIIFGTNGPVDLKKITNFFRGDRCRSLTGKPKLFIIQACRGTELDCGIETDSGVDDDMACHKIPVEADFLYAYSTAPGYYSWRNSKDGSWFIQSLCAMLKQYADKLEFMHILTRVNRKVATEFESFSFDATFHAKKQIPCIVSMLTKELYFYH

[7] = target: T5, Sentrin-specific protease 7 (Homo sapiens, UniProt Q9BQF6); assay type: functional;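 also: Luminescence-based dose-response confirmation of ultra-high-throughput screening hits, measuring inhibition of SENP7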
T5 sequence (Q9BQF6 whole entry): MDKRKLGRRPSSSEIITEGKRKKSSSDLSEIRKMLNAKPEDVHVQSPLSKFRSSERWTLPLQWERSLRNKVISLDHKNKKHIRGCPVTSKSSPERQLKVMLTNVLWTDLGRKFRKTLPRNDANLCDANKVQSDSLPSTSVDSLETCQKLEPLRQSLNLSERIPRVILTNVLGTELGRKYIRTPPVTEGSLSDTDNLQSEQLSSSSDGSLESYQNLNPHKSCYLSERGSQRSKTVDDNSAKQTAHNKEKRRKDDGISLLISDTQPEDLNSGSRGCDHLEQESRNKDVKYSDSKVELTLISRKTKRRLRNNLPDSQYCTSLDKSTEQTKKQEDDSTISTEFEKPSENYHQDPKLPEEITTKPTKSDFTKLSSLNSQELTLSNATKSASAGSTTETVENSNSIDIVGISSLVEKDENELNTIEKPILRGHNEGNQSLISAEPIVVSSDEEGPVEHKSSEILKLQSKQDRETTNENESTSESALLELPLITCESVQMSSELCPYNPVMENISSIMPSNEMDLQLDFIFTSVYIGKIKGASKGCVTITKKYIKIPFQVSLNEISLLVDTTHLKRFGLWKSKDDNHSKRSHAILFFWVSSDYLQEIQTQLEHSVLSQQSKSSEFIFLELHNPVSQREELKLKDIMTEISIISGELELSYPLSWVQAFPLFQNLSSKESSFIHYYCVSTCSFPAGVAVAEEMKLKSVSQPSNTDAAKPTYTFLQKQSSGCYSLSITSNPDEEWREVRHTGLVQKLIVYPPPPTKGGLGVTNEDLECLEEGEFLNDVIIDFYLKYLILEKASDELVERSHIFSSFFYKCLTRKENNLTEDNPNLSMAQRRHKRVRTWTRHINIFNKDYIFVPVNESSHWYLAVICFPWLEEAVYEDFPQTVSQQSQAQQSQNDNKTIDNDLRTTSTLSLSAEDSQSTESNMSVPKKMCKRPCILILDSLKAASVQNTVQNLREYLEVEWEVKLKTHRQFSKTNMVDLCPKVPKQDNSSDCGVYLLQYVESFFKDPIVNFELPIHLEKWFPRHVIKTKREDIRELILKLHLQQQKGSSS

[8] = target: T6, Endoribonuclease toxin MazF (Escherichia coli K-12, UniProt P0AE70); assay: MazF toxin RNase activators, dose response, biochemical, fluorescence, single-stranded RNA substrate, uHTS hits (AID 588481); assay type: functional
T6 sequence (P0AE70 whole entry): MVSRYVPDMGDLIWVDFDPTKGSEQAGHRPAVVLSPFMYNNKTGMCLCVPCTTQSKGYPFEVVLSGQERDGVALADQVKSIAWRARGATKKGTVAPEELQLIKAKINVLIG

[9] = target: T6, Endoribonuclease toxin MazF; assay: fluorescent RNA oligo signal without MazF, dose response, counter-screen for MazEF activator project, biochemical, fluorescence, single-stranded RNase substrate (AID 588502); assay type: functional
Streptococcus = assay: Group A Streptococcus viability loss, dose response, counter-screen for streptokinase expression inhibitor project, luminescence, BacTiterGlo (AID 1915); assay type: functional, organism-based;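 also: potency for reduction of bacterial viability or growth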
Streptokinase A = target: T7, Streptokinase A (Streptococcus pyogenes serotype M1, UniProt P10520); assay: S. pyogenes streptokinase expression inhibitors, potency, dose response, plasminogen activation absorbance, OD405 (AID 1914); assay type: functional, Streptococcus pyogenes M1 GAS;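 also: secreted streptokinase activity via plasminogen activation per viability signal from cell pellet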
T7 sequence (P10520 whole entry): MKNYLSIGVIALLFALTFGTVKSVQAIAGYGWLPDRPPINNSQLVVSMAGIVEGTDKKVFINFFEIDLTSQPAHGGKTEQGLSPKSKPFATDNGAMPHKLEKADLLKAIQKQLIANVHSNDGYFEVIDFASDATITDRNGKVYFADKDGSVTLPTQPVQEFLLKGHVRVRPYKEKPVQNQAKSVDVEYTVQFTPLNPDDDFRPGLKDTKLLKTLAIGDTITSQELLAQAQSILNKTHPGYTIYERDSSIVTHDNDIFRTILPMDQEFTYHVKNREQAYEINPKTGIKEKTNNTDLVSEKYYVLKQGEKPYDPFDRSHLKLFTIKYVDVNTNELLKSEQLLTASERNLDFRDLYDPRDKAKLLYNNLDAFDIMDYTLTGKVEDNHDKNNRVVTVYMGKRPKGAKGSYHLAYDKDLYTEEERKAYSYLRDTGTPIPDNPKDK

[10] = tested on: Streptococcus sp. 'group A'; assay: growth inhibition of control SK(-) GAS strain, dose response, counter-screen for streptokinase expression inhibitor project, luminescence, kanamycin, BacTiterGlo, confirmation (AID 1900); assay type: functional, organism-based
[11] = target: T8, Zinc finger protein mex-5 (Caenorhabditis elegans, UniProt Q9XUB2); assay: MEX-5/TCR-2 RNA interaction inhibitors, dose response, biochemical, C. elegans, fluorescence polarization (AID 1960)
T8 sequence (Q9XUB2 whole entry): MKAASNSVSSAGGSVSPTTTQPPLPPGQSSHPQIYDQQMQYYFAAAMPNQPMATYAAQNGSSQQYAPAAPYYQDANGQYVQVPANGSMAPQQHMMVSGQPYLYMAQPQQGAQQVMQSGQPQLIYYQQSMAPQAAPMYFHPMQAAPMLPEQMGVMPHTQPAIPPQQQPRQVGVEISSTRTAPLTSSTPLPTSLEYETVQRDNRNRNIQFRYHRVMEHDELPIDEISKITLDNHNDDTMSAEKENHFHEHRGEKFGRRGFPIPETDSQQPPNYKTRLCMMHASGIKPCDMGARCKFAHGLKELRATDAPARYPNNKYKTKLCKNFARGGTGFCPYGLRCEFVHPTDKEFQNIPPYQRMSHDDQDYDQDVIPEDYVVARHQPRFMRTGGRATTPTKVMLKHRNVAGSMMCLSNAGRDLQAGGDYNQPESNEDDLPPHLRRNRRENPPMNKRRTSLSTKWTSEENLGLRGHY

[12] = target: T9, RNA-binding protein pos-1 (Caenorhabditis elegans, UniProt G5EF15); assay: inhibitors of POS-1/mex-3 RNA binding, dose response, biochemical, fluorescence polarization (AID 1964);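 also: purified POS-1 fused to maltose binding protein made in E. coli; potency of compounds blocking POS-1 binding to fluorescent RNA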
T9 sequence (G5EF15 whole entry): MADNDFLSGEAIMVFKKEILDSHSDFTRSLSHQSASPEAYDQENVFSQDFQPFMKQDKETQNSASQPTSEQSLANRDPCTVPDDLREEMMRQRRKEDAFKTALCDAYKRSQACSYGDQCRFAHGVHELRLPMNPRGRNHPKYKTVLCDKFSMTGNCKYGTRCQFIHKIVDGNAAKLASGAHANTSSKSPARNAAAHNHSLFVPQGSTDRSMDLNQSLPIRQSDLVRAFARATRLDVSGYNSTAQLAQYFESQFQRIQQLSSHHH

[13] = growth suppression of beta-catenin-knockout colon cells, dose response, cell-based, HCT116, human colon tumor (AID 1045); assay type: functional;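 also: HCT116 colon tumor cells with beta catenin knocked out; cells exposed to compound for 60 hours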
[14] = growth suppression of PTEN-null colon cells, dose response, cell-based, HCT116 PTEN knockout (AID 1047); assay type: functional;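 also: HCT116 colon tumor cells with PTEN knocked out; cells exposed to compound for 60 hours before readout; potency for loss of cell viability measured by luminescence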

Estrogen receptor beta, sequence (Q92731 whole entry): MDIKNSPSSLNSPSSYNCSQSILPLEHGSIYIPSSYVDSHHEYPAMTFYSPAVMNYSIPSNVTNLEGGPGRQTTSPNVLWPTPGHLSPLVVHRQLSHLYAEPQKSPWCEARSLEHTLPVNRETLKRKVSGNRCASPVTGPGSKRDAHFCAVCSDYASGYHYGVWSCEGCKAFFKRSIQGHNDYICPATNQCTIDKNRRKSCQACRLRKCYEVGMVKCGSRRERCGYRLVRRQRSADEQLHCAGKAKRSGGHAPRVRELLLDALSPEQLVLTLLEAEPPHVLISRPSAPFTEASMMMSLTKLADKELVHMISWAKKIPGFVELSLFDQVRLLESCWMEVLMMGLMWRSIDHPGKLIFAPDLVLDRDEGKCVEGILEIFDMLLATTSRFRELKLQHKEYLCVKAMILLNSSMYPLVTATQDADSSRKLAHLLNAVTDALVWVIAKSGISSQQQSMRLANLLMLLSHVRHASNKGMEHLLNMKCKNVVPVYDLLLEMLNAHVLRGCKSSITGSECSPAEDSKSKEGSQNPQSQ

COC(=O)C1=C(C)NC(=O)/C1=C\c1cc(C)n(-c2c(C)cccc2C)c1C
CC50 [1]: 1.88 µM (active)
CC50 [2]: > 40 µM (active)

CC(=O)N(C(C)=O)c1c(C#N)c(C)n(-c2ccccc2)c1C(=O)c1ccccc1
IC50 (Estrogen receptor): > 50 µM (not active)

CCC(C)NCCOCCOc1ccc(Cl)c2ccccc12 (stereo unspecified)
CC50 [2]: 18.4 µM (active)

COC(=O)c1ccc2c(c1)N(Cc1nc(-c3cccc(C)c3)oc1C)C(=O)C1CCCN21 (stereo unspecified)
IC50 (Estrogen receptor): > 50 µM (not active)

Cc1cc(C)n2nc(SCc3cc(=O)oc4cc(O)ccc34)nc2n1
IC50 (Estrogen receptor): 10.1 µM (active)

Cc1nc2sc3c(c2c2nnc(SCC(=O)NCc4ccco4)n12)CCCC3
CC50 [2]: 31.8 µM (active)

c1ccc(-c2nc(C3CCCCC3)no2)cc1
IC50 [3]: > 100 µM (inactive)
IC50 (Estrogen receptor beta): > 50 µM (not active)
EC50 [4]: 32.8 µM (active)
IC50 [5]: 66.3 µM (active)
EC50 [6]: 0.896 µM (active)
EC50 (H4): > 120 µM (not active)
IC50 (Caspase-3): 57.1 µM (active)
IC50 [7]: 23.2 µM (active)

CC1=Nc2ccccc2/C1=C\c1nc(-c2ccc(F)cc2)oc1O
EC50 [8]: > 99 µM (inactive)
EC50 [9]: 55.9 µM (inactive)
EC50 (Streptococcus): > 150 µM (not active)
EC50 (Streptokinase A): 16.6 µM (active)
EC50 [10]: 8.82 µM (active)
CC50 [2]: > 40 µM (active)
EC50 [11]: 5.53 µM (active)
EC50 [12]: > 300 µM (not active)

Cc1ccsc1/C=N/Nc1ncc(Cl)cc1Cl
EC50 [13]: 15.5 µM (active)
CC50 [2]: 32.4 µM (active)
EC50 [14]: 12.9 µM (active)
